Assay results published in PubChem BioAssay (NCI).
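Test compounds were applied to cells in 96-well plates for 48 hours at 5 doses. The concentration for 50% growth inhibition is given as GI50. At the TGI there is no net growth.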

Columns and labels:
Assay in all cases: DTP human tumour cell line panel, 48 h
[1] = system: SK-MEL-5 melanoma
[2] = system: A498 renal
[3] = system: COLO 205 colon
[4] = system: HOP-92 NSCLC
[5] = system: MOLT-4 leukemia
[6] = system: ACHN renal
[7] = system: NCI-H226 lung
[8] = system: SF-295 CNS
[9] = system: HT29 colon
[10] = system: HL-60(TB) leukemia
[11] = system: SW-620 colon
[12] = system: SF-539 CNS
[13] = system: OVCAR-4 ovarian
[14] = system: 786-0 renal
[15] = system: HS 578T breast
[16] = system: NCI/ADR-RES ovarian
[17] = system: SNB-19 CNS
[18] = system: NCI-H460 lung
[19] = system: IGROV1 ovarian
[20] = system: DU-145 prostate
[21] = system: K-562 leukemia
[22] = system: LOX IMVI melanoma
[23] = system: T-47D breast
[24] = system: UACC-257 melanoma
[25] = system: HCT-15 colon
[26] = system: RXF 393 renal
[27] = system: MDA-MB-435
[28] = system: MALME-3M melanoma
[29] = system: U251 CNS
[30] = system: MCF7 breast
[31] = system: OVCAR-5 ovarian
[32] = system: UACC-62 melanoma
[33] = system: CCRF-CEM leukemia
[34] = system: TK-10 renal
[35] = system: HOP-62 NSCLC
[36] = system: A549 NSCLC
[37] = system: SN12C renal
[38] = system: SK-OV-3 ovarian
[39] = system: SF-268 CNS
[40] = system: PC-3 prostate
[41] = system: KM12 colon
[42] = system: SK-MEL-2 melanoma
[43] = system: BT-549 breast
[44] = system: SNB-75 CNS
[45] = system: OVCAR-8 ovarian
[46] = system: SK-MEL-28 melanoma
[47] = system: HCC-2998 colon
[48] = system: RPMI-8226 leukemia
[49] = system: CAKI-1 renal
[50] = system: EKVX NSCLC
[51] = system: MDA-MB-231 breast
[52] = system: HCT-116 colon
[53] = system: NCI-H23 lung
[54] = system: M14 melanoma
[55] = system: SR leukemia
[56] = system: UO-31 renal
[57] = system: NCI-H522 lung
[58] = system: OVCAR-3 ovarian

Oc1ccccc1-c1nnc(SCc2ccc(O)c3ncccc23)n1-c1ccccc1
GI50 [1]: 349 nM
TGI [1]: 1530 nM
GI50 [2]: 1850 nM
TGI [2]: 7440 nM
GI50 [3]: 4010 nM
TGI [3]: 32000 nM
GI50 [4]: 106 nM
TGI [4]: 654 nM
GI50 [5]: 434 nM
TGI [5]: > 100000 nM
GI50 [6]: 331 nM
TGI [6]: 26300 nM
GI50 [7]: 1770 nM
TGI [7]: > 100000 nM
GI50 [8]: 347 nM
TGI [8]: > 53800 nM
GI50 [9]: 3620 nM
TGI [9]: > 51400 nM
GI50 [10]: 326 nM
TGI [10]: 2380 nM
GI50 [11]: 429 nM
TGI [11]: > 100000 nM
GI50 [12]: 438 nM
TGI [12]: 13700 nM
GI50 [13]: 641 nM
TGI [13]: > 100000 nM
GI50 [14]: 513 nM
TGI [14]: 12000 nM
GI50 [15]: 357 nM
TGI [15]: > 100000 nM
GI50 [16]: 279 nM
TGI [16]: > 100000 nM
GI50 [17]: 378 nM
TGI [17]: > 100000 nM
GI50 [18]: 372 nM
TGI [18]: > 100000 nM
GI50 [19]: 406 nM
TGI [19]: > 100000 nM
GI50 [20]: 498 nM
TGI [20]: > 90800 nM
GI50 [21]: 270 nM
TGI [21]: > 100000 nM
GI50 [22]: 350 nM
TGI [22]: > 35300 nM
GI50 [23]: 344 nM
TGI [23]: > 100000 nM
GI50 [24]: 514 nM
TGI [24]: > 26800 nM
GI50 [25]: 323 nM
TGI [25]: > 100000 nM
GI50 [26]: 666 nM
TGI [26]: 80200 nM
GI50 [27]: 402 nM
TGI [27]: > 100000 nM
GI50 [28]: 806 nM
TGI [28]: 7890 nM
GI50 [29]: 363 nM
TGI [29]: > 100000 nM
GI50 [30]: 310 nM
TGI [30]: > 100000 nM
GI50 [31]: 2110 nM
TGI [31]: > 100000 nM
GI50 [32]: 426 nM
TGI [32]: 2540 nM
GI50 [33]: 379 nM
TGI [33]: > 100000 nM
GI50 [34]: 417 nM
TGI [34]: > 100000 nM
GI50 [35]: 377 nM
TGI [35]: > 21000 nM
GI50 [36]: 441 nM
TGI [36]: > 100000 nM
GI50 [37]: 347 nM
TGI [37]: 52700 nM
GI50 [38]: 376 nM
TGI [38]: > 19700 nM
GI50 [39]: 475 nM
TGI [39]: > 100000 nM
GI50 [40]: 488 nM
TGI [40]: > 100000 nM
GI50 [41]: 485 nM
TGI [41]: > 75300 nM
GI50 [42]: 361 nM
GI50 [43]: 494 nM
TGI [43]: > 100000 nM
GI50 [44]: 416 nM
TGI [44]: > 58800 nM
GI50 [45]: 375 nM
TGI [45]: > 41500 nM
GI50 [46]: 543 nM
TGI [46]: > 100000 nM
GI50 [47]: 552 nM
TGI [47]: > 95200 nM
GI50 [48]: 399 nM
TGI [48]: > 100000 nM
GI50 [49]: 382 nM
TGI [49]: 24600 nM
GI50 [50]: 437 nM
TGI [50]: 9810 nM
GI50 [51]: 432 nM
TGI [51]: 24200 nM
GI50 [52]: 325 nM
TGI [52]: > 100000 nM
GI50 [53]: 412 nM
TGI [53]: > 100000 nM
GI50 [54]: 418 nM
GI50 [55]: 345 nM
TGI [55]: > 100000 nM
GI50 [56]: 291 nM
TGI [56]: 2480 nM

C#C[C@]1(O)CC[C@H]2[C@@H]3CC=C4c5sc(-c6ccc(F)cn6)nc5CC[C@]4(C)[C@H]3CC[C@@]21C
GI50 [1]: 2620 nM
TGI [1]: 7230 nM
GI50 [2]: 2050 nM
TGI [2]: 4060 nM
GI50 [3]: 2620 nM
TGI [3]: 11100 nM
GI50 [4]: 2020 nM
TGI [4]: 6830 nM
GI50 [5]: 2010 nM
TGI [5]: 8060 nM
GI50 [6]: 3430 nM
TGI [6]: 14000 nM
GI50 [7]: 2930 nM
TGI [7]: 13100 nM
GI50 [8]: 1240 nM
TGI [8]: 2960 nM
GI50 [9]: 2020 nM
TGI [9]: 4600 nM
GI50 [10]: 2770 nM
TGI [10]: 10900 nM
GI50 [11]: 2620 nM
TGI [11]: 8010 nM
GI50 [12]: 1230 nM
TGI [12]: 2880 nM
GI50 [13]: 4410 nM
TGI [13]: 18500 nM
GI50 [14]: 1360 nM
TGI [14]: 3330 nM
GI50 [15]: 1450 nM
TGI [15]: 5260 nM
GI50 [16]: 4120 nM
TGI [16]: 23600 nM
GI50 [17]: 2720 nM
TGI [17]: 12700 nM
GI50 [18]: 3030 nM
TGI [18]: 12500 nM
GI50 [19]: 4960 nM
TGI [19]: 20800 nM
GI50 [20]: 4620 nM
TGI [20]: 18900 nM
GI50 [21]: 2490 nM
TGI [21]: > 100000 nM
GI50 [22]: 1820 nM
TGI [22]: 3350 nM
GI50 [23]: 3430 nM
TGI [23]: 16100 nM
GI50 [24]: 2250 nM
TGI [24]: 6730 nM
GI50 [25]: 1890 nM
TGI [25]: 5110 nM
GI50 [57]: 2060 nM
TGI [57]: 5780 nM
GI50 [26]: 309 nM
TGI [26]: 956 nM
GI50 [27]: 2280 nM
TGI [27]: 6840 nM
GI50 [28]: 3290 nM
TGI [28]: 11700 nM
GI50 [29]: 1680 nM
TGI [29]: 7050 nM
GI50 [30]: 1500 nM
TGI [30]: 3380 nM
GI50 [31]: 4010 nM
TGI [31]: 14800 nM
GI50 [32]: 2650 nM
TGI [32]: 8530 nM
GI50 [33]: 2710 nM
TGI [33]: 33500 nM
GI50 [34]: 5310 nM
TGI [34]: 17300 nM
GI50 [35]: 2280 nM
TGI [35]: 7250 nM
GI50 [36]: 3440 nM
TGI [36]: 15100 nM
GI50 [37]: 4540 nM
TGI [37]: 17500 nM
GI50 [38]: 2290 nM
TGI [38]: 5640 nM
GI50 [39]: 3460 nM
TGI [39]: 18400 nM
GI50 [40]: 1730 nM
TGI [40]: 7640 nM
GI50 [41]: 3260 nM
TGI [41]: 20800 nM
GI50 [42]: 2330 nM
TGI [42]: 6580 nM
GI50 [43]: 1770 nM
TGI [43]: 5020 nM
GI50 [44]: 2450 nM
TGI [44]: 15000 nM
GI50 [45]: 3160 nM
TGI [45]: 14300 nM
GI50 [46]: 1640 nM
TGI [46]: 3880 nM
GI50 [47]: 5160 nM
TGI [47]: 17800 nM
GI50 [48]: 365 nM
TGI [48]: 1720 nM
GI50 [49]: 2120 nM
TGI [49]: 6270 nM
GI50 [50]: 2890 nM
TGI [50]: 12900 nM
GI50 [51]: 2400 nM
TGI [51]: 7140 nM
GI50 [52]: 1800 nM
TGI [52]: 4300 nM
GI50 [58]: 3860 nM
TGI [58]: 72400 nM
GI50 [54]: 2770 nM
TGI [54]: 11700 nM
GI50 [55]: 2210 nM
TGI [55]: 8390 nM
GI50 [56]: 2320 nM
TGI [56]: 5620 nM
